Data reported in ChEMBL document CHEMBL1201862, “PubChem BioAssay data set” (2004).
Calls of active or inactive are those of the source.

How the values were obtained:
Nonstructural protein 1 = Nonstructural protein 1 (Influenza A virus, UniProt Q194T2); type: functional, Influenza A virus (A/California/07/2009(H1N1))
INS1 = test: INS-1E survival protection against cytokine death – cell-based, luminescence, retest, dose response (AID 449756); type: functional; settings: Rattus norvegicus;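 note: cell death triggered by IL-1 beta plus TNF-alpha plus IFN-gamma mixture; protective hits raise ATP signal compared with cytokine alone wells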
[1] = target: T1, Ubiquitin-conjugating enzyme E2 N (Homo sapiens, UniProt P61088); type: functional;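 note: Dose-response confirmation in a TR-FRET assay detecting UBC13-driven polyubiquitin chain formation, inhibition measured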
T1 sequence (P61088 whole entry): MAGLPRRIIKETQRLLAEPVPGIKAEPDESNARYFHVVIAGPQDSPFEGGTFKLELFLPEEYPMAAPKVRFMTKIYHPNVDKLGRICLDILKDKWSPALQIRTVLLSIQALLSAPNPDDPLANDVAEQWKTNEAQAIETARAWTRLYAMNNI

Leucine aminopeptidase = target: T2, Leucine aminopeptidase (Plasmodium falciparum 3D7, UniProt Q8IL11); test: P. falciparum M17LAP inhibitors, primary screen, biochemical, fluorogenic H-Leu-NHMec substrate, 1536-well (AID 1619); type: functional
T2 sequence (Q8IL11 whole entry): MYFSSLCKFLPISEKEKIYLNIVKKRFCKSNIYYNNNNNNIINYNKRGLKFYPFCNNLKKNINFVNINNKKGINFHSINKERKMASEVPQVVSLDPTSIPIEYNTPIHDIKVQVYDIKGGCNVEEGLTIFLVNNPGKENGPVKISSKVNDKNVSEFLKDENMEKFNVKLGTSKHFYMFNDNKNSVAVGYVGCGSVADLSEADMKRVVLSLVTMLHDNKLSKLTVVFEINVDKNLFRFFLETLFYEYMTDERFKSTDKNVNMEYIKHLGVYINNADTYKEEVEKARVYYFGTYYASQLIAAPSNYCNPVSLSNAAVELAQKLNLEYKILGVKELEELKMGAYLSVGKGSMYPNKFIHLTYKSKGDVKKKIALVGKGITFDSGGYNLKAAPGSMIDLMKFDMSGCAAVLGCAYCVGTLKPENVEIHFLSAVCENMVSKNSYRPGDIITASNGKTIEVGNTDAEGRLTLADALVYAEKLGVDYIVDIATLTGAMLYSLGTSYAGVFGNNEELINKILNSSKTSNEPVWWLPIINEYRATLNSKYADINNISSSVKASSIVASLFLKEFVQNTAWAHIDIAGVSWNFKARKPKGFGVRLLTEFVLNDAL

Protein RecA = target: T3, Protein RecA (Mycobacterium tuberculosis, UniProt P9WHJ3); test: Fluorescence Cell-Free Homogeneous Dose Retest to Identify Inhibitors of RecA-Intein Splicing Activity. [Related pubchem assays (depositor defined):AID2097, AID2223, AID489010, AID492950]; type: functional
T3 sequence (P9WHJ3 whole entry): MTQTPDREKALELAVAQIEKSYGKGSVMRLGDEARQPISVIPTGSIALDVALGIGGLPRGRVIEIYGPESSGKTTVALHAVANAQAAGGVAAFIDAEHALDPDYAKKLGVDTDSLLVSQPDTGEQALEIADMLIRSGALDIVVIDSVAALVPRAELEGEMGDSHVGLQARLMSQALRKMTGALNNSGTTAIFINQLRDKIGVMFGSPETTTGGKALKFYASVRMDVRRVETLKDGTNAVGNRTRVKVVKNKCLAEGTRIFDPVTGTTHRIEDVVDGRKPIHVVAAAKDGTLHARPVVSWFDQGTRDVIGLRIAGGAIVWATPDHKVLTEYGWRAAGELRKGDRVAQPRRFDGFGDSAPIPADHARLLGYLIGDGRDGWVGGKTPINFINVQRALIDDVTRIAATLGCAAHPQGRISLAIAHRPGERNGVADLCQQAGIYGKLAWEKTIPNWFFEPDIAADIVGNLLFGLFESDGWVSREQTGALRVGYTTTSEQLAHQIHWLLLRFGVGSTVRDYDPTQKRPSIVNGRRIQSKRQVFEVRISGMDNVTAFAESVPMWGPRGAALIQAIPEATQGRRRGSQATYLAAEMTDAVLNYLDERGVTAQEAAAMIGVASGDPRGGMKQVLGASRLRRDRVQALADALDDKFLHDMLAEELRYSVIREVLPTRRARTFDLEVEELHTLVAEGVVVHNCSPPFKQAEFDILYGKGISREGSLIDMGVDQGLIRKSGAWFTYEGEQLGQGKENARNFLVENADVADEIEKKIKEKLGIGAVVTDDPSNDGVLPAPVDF

[2] = target: T4, Replicative DNA helicase DnaB (Mycobacterium tuberculosis, UniProt P9WMR3); test: DnaB intein splicing inhibitors, dose response, biochemical, cell-free fluorescence (AID 449749); type: functional
T4 sequence (P9WMR3 whole entry): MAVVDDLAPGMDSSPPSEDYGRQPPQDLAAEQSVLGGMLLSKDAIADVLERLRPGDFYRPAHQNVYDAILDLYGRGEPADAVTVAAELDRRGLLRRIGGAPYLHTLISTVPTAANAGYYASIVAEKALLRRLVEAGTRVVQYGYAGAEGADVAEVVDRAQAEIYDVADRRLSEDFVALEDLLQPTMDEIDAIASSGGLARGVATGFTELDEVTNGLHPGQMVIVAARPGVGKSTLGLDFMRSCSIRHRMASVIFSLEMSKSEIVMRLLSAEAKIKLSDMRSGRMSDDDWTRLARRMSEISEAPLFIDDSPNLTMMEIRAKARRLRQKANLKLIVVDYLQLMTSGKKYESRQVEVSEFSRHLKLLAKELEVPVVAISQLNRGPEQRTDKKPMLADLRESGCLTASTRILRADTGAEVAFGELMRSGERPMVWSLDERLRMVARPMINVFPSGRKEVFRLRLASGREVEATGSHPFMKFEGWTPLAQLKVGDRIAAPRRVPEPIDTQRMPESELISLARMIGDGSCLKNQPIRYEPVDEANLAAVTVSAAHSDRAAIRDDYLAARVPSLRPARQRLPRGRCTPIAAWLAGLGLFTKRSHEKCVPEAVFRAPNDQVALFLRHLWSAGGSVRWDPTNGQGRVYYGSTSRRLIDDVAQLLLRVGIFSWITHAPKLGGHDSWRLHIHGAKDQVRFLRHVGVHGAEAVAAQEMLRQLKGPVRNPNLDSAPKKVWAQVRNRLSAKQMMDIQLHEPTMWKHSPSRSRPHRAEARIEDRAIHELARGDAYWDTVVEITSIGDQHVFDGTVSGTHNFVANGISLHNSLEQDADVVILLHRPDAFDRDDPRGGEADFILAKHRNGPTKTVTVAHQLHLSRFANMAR

Vero [3] = test: cells; type: functional, cell-based; settings: Chlorocebus sabaeus
[4] = target: FAD-linked sulfhydryl oxidase ALR (Homo sapiens, UniProt P55789); test: ALR-catalysed DTT oxidation blockers – biochemical, H2O2 detection, luminescence, cherry-pick, dose response (AID 493248)
Coagulation factor XII = target: T5, Coagulation factor XII (Homo sapiens, UniProt P00748); type: functional;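 note: activated factor XIIa alpha cleaving a fluorogenic AMC peptide substrate; inhibitor potency from loss of enzyme activity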
T5 sequence (P00748 whole entry): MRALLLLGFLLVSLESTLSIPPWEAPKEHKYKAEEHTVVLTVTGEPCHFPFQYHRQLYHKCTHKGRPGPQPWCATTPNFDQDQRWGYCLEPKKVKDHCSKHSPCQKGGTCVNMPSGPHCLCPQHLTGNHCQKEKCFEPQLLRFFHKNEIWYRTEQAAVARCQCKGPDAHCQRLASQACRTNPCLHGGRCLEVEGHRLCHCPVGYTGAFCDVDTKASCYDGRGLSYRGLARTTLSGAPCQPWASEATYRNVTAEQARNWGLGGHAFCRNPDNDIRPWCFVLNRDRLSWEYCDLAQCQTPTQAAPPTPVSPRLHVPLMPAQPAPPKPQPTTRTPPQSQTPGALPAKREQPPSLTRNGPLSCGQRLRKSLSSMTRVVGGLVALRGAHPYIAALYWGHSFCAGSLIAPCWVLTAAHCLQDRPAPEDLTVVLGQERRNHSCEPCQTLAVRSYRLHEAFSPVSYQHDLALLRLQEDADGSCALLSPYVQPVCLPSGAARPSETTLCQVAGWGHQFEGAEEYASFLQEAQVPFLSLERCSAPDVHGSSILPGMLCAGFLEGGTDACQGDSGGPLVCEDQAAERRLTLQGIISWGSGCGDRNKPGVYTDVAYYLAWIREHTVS

Vero [5] = test: cells; type: functional; settings: Chlorocebus sabaeus
[6] = microbe, parasite or virus in culture; type: functional; settings: Mycobacterium tuberculosis
[7] = target: Glyceraldehyde-3-phosphate dehydrogenase (Homo sapiens, UniProt P04406)
Cytochrome P450 2D6 = Cytochrome P450 2D6 (Homo sapiens, UniProt P10635);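 note: CYP2D6 member of a cytochrome P450 panel assay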
Cytochrome P450 2C19 = Cytochrome P450 2C19 (Homo sapiens, UniProt P33261); test: Cytochrome panel assay with activity outcomes. Panel member name: p450-cyp2c19 Compounds with AC50 equal or less than 10 uM are considered active; type: functional; settings: read-out: AC50
[8] = Luminescence Cell-Based Dose Retest to Confirm Inhibitors of Cancer Stem Cells. [Related pubchem assays (depositor defined):AID2717, AID2721]; type: functional; settings: Homo sapiens

Sequence of Nonstructural protein 1 (Q194T2 whole entry): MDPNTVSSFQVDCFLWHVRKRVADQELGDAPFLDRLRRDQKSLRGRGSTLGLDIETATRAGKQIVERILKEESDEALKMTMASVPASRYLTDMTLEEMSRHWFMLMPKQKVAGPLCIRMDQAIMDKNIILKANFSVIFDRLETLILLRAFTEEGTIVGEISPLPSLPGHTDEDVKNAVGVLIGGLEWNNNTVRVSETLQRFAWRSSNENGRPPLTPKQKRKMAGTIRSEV
Sequence of FAD-linked sulfhydryl oxidase ALR (P55789 whole entry): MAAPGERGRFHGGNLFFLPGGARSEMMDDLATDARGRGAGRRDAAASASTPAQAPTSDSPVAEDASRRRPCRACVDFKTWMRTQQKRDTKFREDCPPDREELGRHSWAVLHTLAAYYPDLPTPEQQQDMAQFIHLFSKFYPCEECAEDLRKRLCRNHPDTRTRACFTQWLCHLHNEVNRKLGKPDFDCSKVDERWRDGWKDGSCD
Sequence of Glyceraldehyde-3-phosphate dehydrogenase (P04406 whole entry): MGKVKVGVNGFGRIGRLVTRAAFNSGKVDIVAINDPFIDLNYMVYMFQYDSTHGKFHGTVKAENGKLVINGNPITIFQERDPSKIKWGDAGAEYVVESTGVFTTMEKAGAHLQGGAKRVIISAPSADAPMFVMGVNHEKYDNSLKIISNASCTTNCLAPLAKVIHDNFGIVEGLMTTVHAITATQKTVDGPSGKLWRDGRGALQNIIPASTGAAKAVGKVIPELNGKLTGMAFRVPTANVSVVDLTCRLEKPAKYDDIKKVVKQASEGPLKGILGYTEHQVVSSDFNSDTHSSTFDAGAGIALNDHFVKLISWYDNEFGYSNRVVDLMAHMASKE
Sequence of Cytochrome P450 2C19 (P33261 whole entry): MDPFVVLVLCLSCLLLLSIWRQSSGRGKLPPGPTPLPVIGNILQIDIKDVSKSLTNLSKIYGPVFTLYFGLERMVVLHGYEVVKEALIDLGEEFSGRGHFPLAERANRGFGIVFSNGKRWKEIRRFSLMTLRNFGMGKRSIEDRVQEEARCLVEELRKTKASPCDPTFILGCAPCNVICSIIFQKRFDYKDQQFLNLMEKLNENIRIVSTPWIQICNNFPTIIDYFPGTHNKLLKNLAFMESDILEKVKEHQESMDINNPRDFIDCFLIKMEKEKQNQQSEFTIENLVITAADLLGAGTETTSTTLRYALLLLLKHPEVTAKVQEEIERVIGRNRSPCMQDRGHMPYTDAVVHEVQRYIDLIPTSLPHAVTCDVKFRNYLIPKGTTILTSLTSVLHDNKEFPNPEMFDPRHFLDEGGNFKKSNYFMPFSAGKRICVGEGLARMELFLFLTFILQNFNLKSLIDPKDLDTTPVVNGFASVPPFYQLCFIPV
Sequence of Cytochrome P450 2D6 (P10635 whole entry): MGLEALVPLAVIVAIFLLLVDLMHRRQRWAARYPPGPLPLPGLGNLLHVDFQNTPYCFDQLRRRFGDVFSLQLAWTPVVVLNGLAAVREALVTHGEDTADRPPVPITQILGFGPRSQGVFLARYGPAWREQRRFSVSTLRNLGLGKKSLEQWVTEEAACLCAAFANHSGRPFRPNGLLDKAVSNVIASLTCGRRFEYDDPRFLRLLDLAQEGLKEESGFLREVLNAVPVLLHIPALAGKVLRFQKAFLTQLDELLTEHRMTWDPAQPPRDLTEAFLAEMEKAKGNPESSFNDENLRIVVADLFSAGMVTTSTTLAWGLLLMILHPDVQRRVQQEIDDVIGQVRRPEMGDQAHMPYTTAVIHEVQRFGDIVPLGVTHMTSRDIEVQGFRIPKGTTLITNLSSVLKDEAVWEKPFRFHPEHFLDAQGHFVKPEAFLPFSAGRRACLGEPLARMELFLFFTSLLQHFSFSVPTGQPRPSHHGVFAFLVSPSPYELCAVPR

## Cc1ccc2ccc3cccnc3c2n1
Nonstructural protein 1
  IC50: 14.5 µM (active)
INS1
  AC50: 0.865 µM (active)

## CCOC(=O)c1ccc(NC(=O)c2[nH]cnc2C(=O)NC2CCN(C(=O)OC(C)(C)C)CC2)cc1
[1]
  IC50: > 20 µM (inactive)

## CC1=NN(CCC#N)C(=O)/C1=C/c1ccc(N(C)C)cc1
Leucine aminopeptidase
  IC50: 120 µM (active)
Protein RecA
  EC50: 3.17 µM (active)
[2]
  AC50: 2.79 µM (inconclusive)

## O=C(NCCCN1CCCC1)c1ccc2c(Cl)c3c(nc2c1)CCCC3
Vero [3]
  IC50: > 25 µM (active)
[4]
  AC50: 0.01 µM (active)
Coagulation factor XII
  IC50: > 50 µM (inconclusive)
Vero [5]
  CC50: > 25 µM (active)

## CCn1c(C)nc2cc(C(=O)OC(C(F)(F)C(F)F)C(F)(F)C(F)F)ccc21
Vero [3]
  IC50: 24.4 µM (active)
[6]
  CC50: > 40 µM (active)
Vero [5]
  CC50: > 25 µM (active)

## Cc1ccc(CNC(=O)CSc2nc3ccsc3c(=O)n2Cc2ccc(C(=O)O)cc2)cc1
[1]
  IC50: > 20 µM (inactive)

## Oc1ccc(C=NNC(=S)Nc2cccnc2)nc1
Nonstructural protein 1
  IC50: 0.992 µM (active)

## O=C(Nc1nncs1)c1cccc(S(=O)(=O)N2CCCC2)c1
[7]
  IC50: > 100 µM (not active)

## Cc1sc(N/N=C/c2cccnc2)nc1-c1ccccc1
Cytochrome P450 2D6
  AC50: 0.794 µM (inconclusive)
Vero [3]
  IC50: > 25 µM (active)
Cytochrome P450 2C19
  AC50: 0.501 µM (inconclusive)
Vero [5]
  CC50: > 25 µM (active)

## CCOc1ccc(C(C(=O)NCC2CCCO2)N(C(=O)c2snc(C(N)=O)c2N)c2ccc3c(c2)OCCO3)cc1 (stereo not drawn)
[1]
  IC50: > 20 µM (inactive)

## Nc1nc(C2CC2)c(Sc2sc(N)nc2C2CC2)s1
Vero [3]
  IC50: > 25 µM (active)
[4]
  AC50: 0.511 µM (active)

## CCCCCc1cc(=O)oc2c(C(CCN(CC)CC)c3cc(OC)c(OC)c(OC)c3)c(OC)cc(OC)c12 (stereo not drawn)
[1]
  IC50: > 20 µM (inactive)
[8]
  AC50: 7.71 µM (active)

## COc1ccc(C2C3=C(CC(C)(C)CC3=O)Oc3ncn(Cc4ccco4)c(=N)c32)cc1 (stereo not drawn)
Nonstructural protein 1
  IC50: > 100 µM (active)

## O=[N+]([O-])c1cccc(-c2cn3c([n+]2-c2ccccc2)SCC3)c1
Vero [3]
  IC50: 5.3 µM (active)

## COc1cccc(S(=O)(=O)Nc2cnc3ccccc3c2)c1
[7]
  IC50: > 100 µM (not active)
